Consider seven compounds from PMC6713164, “Inhibitory effects of flavonoids isolated from Sophora flavescens on indoleamine 2,3-dioxygenase 1 activity” (Journal of Enzyme Inhibition and Medicinal Chemistry, 2019).

Experiment [1] deals with T1, IDO1 (Homo sapiens, UniProt P14902). Nature of the experiment: IDO1 enzyme assay. Format: biochemical. More on the design: The full-length of IDO1 gene was amplified by PCR; His tag; made in house; host or cells: Escherichia coli T7 strain, vector pET28a. The following applies: recombinant human IDO1, L-Trp 200 µM, 37 °C, 1 h, mean ± SD; for IC50: read-out: His-hIDO1 IC50. From the text:
The Escherihia coli DH5α and T7 strain were used for gene cloning and protein production, respectively. The human IDO1 clone was provided from Korea Human Gene Bank, Medical Genomics Research Center, KRIBB, Korea. The full-length of IDO1 gene was amplified by PCR using pfu DNA polymerase (Thermo Fisher, , Waltham, MA). The PCR product from IDO1 mRNA was cloned into expression vector pET28a to obtain pET28a-IDO1 and confirmed using DNA sequencing (Cosmogenetech, Seoul, Korea). […] The expressed IDO1 protein was purified using Ni-NTA agarose (Qiagen, Valencia, CA) at 4 °C. The eluted IDO1 protein was dialysed using storage buffer (20 mM Tris-HCl buffer (pH 8.0 and 200 mM NaCl)). The purified IDO1 protein was analysed with SDS-PAGE.
The enzyme assays were performed with previous descripted in Takikawa et al.[23]. Briefly, 200 µL of the reaction mixture contained potassium phosphate buffer (50 mM, pH 6.5), ascorbic acid (20 mM), methylene blue (10 µM), catalase (10 mM), purified recombinant human IDO1 enzyme (5 µg/mL) and L-Trp (200 µM). The metabolites were serially diluted in dimethyl sulfoxide (DMSO, 0.5%, v/v) and transferred to a 96-well plates. […] The plates were centrifuged at 4000 rpm for 15 min to remove debris. Next, the supernatant (125 µL) from each well was transferred to a 96-well plates. p-dimethylaminobenzaldehyde (125 µL; 2%, v/v) in acetic acid was then added to each well, and the absorbance value of the plate was read at a wavelength of 480 nm using a SpectraMAX-190 ELISA reader (Molecular Devices, Sunnyvale, CA).

Experiment [2] has as its target T1, IDO1. Nature of the experiment: Cell-based IDO1 assay (Kyn production) in IFN-γ-treated HeLa cells. More on the design: to induce endogenous IDO1 expression; endogenous in cells; host or cells: HeLa cells stimulated with IFN-γ. To be noted: IFN-γ-treated (50 ng/mL, 24 h) HeLa cells, compound 6 h; mean ± SD; read-out: IC50 against cell-based IDO1 (Kyn production). As to the method: HeLa (Human cervical cancer cells) cells were purchased from the American Type Culture Collection (ATCC) and cultured in DMEM supplemented with fetal bovine serum (FBS, 10%) and penicillin–streptomycin (1%).
HeLa cells were seeded into 48-well plates (2 × 10^4 cells/well). Next, the cells were stimulated with human recombinant IFN-γ (50 ng/mL, R&D Systems, Minneapolis, MN) in complete DMEM for 24 h. After replacing the medium with DMEM containing IFN-γ, the cells were treated with the flavonoids (1–6) or DMSO (0.5%, v/v) for 6 h, and then the supernatant (125 µL) from each well was transferred to a 96-well plate. The cell-based assay was similarly performed to the IDO1 enzyme assay.

The target of experiment [3] is T1, IDO1. Description: IDO1 enzyme kinetics assay (Lineweaver–Burk, Dixon plots). The class given is biochemical. The following applies: L-Trp 0–50 µM, flavonoids 0–45 µM, read-out: κi. The procedure:
The kinetics assay was performed by adding purified protein to the reaction mixture (200 µL) which contained a final concentration of potassium phosphate buffer (50 mM, pH 6.5), ascorbic acid (20 mM), catalase (10 mM), methylene blue (10 µM), and distilled water up to 200 µL. Various concentrations of L-Trp as substrate of IDO1 were added to the reaction mixture with four different concentrations of flavonoids (0–45 µM). After incubation at 37 °C for 1 h, the dissociation constant (κi) of the three flavonoids were determined by measuring the activity at five concentrations of L-Trp (0 to 50 µM).

Experiment [4] deals with T1, IDO1. Nature of the experiment: Thermal shift assay (SYPRO-Orange). Format: binding. The following applies: 30 µM compound, without L-Trp; read-out: increase of mean melting temperature (ΔTm) compared to DMSO-treated group. As to the method: The thermal stability of proteins was measured by SYPRO-Orange (Thermo Fisher Scientific, Waltham, MA) as previously described in Soderhole et al.[24]. Briefly, IDO 1 enzyme (5 µg/mL) was mixed with 30 µM of kushenol F (KF, 4), (2S)-2'-methoxy kurarinone (MK, 5), and kushenol E (KE, 6), or serially diluted KE (6) in 20 µL reaction buffer containing potassium phosphate buffer (50 mM) and sodium chloride (100 mM), and then incubated for 1 h. The measurement of protein denaturation via an increase in temperature was determined using real-time PCR device (CFX96 Real Time System, BioRad, Hercules, CA) using the FRET channel. In the presence of IDO1 enzyme, SYPRO-Orange has a maximum excitation near 490 nm and a maximum emission near 600 nm. The heating rate and fluorescence reading were 0.5 °C/10 s depending on the temperature range 25–95 °C.

The target of the next experiment is T2, His-IDO1 (WT) (Homo sapiens, UniProt P14902).
T2 construct: The full-length of IDO1 gene was amplified by PCR; His tag; made in house; host or cells: Escherichia coli T7 strain, vector pET28a
Description: Surface plasmon resonance (SPR) assay, His-IDO1 (WT). The class given is binding. The procedure:
(§1) The SPR assay was performed with 10 mM stock solution and five serially diluted concentrations of KE (6) in PBS and 5% DMSO at 25 °C using a Reichert instrument (SR7500DC System, USA) using a sensor chip CM5 (GE Healthcare, Chicago, IL) (Woojung BSC Inc, Seoul, Korea). Amine coupling of His-IDO1 (WT and P314A) was performed with 0.2 M 1-ethyl-3-(3-dimethylaminopropyl)-carbodiimide, 0.05 M N-hydroxysuccinimide, and 1 M ethanolamine (ph 8.5, GE Healthcare, Chicago, IL). The results were analysed using Scrubber software (version 2.0, BioLogic Software, Mundelein, IL).

Experiment [5] concerns the target T3, His-IDO1 (P314A) (Homo sapiens, UniProt P14902, P314A).
T3 construct: The full-length of IDO1 gene was amplified by PCR; His tag; made in house
Nature of the experiment: Surface plasmon resonance (SPR) assay, His-IDO1 (P314A). Format: binding. As to the method:
as §1
(§2) Point mutations were introduced using the Muta-Direct^TM mutagenesis kit (iNtRON, Seuol, Korea). Oligonucleotides for generation of Pro182 (P182A), Phe185 (F185A), double mutation (P182A and F185A), and Pro 314 (P314A) to alanine mutants (mutated residues are underlined) were as follows: • For P182A: 5′-[…]-3′, 5′-[…]-3′. • For F185A: 5′-[…]-3′, 5′-[…]-3′. • For double mutation (P182A and F185A): 5′-[…]-3′, 5′-[…]-3′. • For P314A: 5′- […]-3′, 5′- […]-3′.

The target in experiment [6] is T3, His-IDO1 (P314A). Description: Mutagenesis assay: IDO1 enzyme assay with P314A mutant. Format: biochemical. To be noted: mutant form of His-IDO1 (P314A). The procedure:
The enzyme assays were performed with previous descripted in Takikawa et al.[23]. […]. The metabolites were serially diluted in dimethyl sulfoxide (DMSO, 0.5%, v/v) and transferred to a 96-well plates. The reaction was conducted at 37 °C for 1 h and stopped by adding 40 µL of trichloroacetic acid (30%); the solution was then heated at 65 °C for 15 min. The plates were centrifuged at 4000 rpm for 15 min to remove debris. Next, the supernatant (125 µL) from each well was transferred to a 96-well plates. p-dimethylaminobenzaldehyde (125 µL; 2%, v/v) in acetic acid was then added to each well, and the absorbance value of the plate was read at a wavelength of 480 nm using a SpectraMAX-190 ELISA reader (Molecular Devices, Sunnyvale, CA).
as §2

Setting [7] is: standard error in parentheses, read-out: Ka.

T3 sequence (P14902 whole entry P314A): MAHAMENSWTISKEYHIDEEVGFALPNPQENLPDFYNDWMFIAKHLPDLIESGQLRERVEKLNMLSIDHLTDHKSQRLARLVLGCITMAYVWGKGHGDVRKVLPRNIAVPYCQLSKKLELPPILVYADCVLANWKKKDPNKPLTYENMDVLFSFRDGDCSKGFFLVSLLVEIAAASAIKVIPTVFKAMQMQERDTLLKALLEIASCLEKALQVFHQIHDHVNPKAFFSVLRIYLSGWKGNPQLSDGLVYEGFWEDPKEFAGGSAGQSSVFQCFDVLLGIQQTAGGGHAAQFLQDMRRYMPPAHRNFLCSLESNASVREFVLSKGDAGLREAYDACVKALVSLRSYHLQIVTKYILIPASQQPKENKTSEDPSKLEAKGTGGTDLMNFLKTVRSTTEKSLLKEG
T1 sequence (P14902 whole entry): as the sequence (P14902 whole entry P314A) above, with A314P counted along it
T2 sequence (P14902 whole entry): as the sequence (P14902 whole entry P314A) above, with A314P counted along it

On to `C=C(C)[C@H](CC=C(C)C)Cc1c(O)cc(O)c2c1O[C@H](c1ccc(O)cc1O)CC2=O` [Kushenol F (KF, 4), kushenol F], for which the results for the concentration for half-maximal inhibition (IC50) on IDO1 [1] and at IDO1 [2] were 25.4 ± 4.4 µM and 28.3 ± 0.3 µM, respectively. At IDO1 [3], the Ki was found to be 20.2 ± 3.1 µM. The ΔTm at 30 µM at IDO1 [4] was found to be 1.5 °C.
Consider `O=C1CC(c2ccc(O)cc2O)Oc2cc(O)cc(O)c21` (stereo not drawn) [Steppogenin, steppogenin, reference compound], for which the “His-hIDO1 IC50” value on IDO1 [1] is reported as “does not affect IDO1 inhibitory activity”.
With `CC(C)=CCc1c(O)c(CC=C(C)C)c2c(c1O)C(=O)C[C@@H](c1ccc(O)cc1O)O2` [Kushenol E (KE, 6), kushenol E], the Kd on His-IDO1 (WT) (25 °C, PBS 5% DMSO) was determined as 6.5 ± 0.1 µM; at His-IDO1 (P314A) [5] (25 °C, PBS 5% DMSO), 8.9 ± 0.2 µM. The kon at His-IDO1 (WT) (setting [7]) was 136 M⁻¹ s⁻¹; on His-IDO1 (P314A) [5] (setting [7]), 120 M⁻¹ s⁻¹. For the same compound, the values for the IC50 on IDO1 [1], at IDO1 [2] and against His-IDO1 (P314A) [6] were 7.7 ± 6.2 µM, 4.3 ± 0.3 µM and 29.8 ± 1.8 µM, respectively. In addition, the Ki on IDO1 [3] came out at 9.5 ± 0.6 µM. The ΔTm at 30 µM on IDO1 [4] was determined as 5.7 °C.
On to `C=C(C)[C@H](CC=C(C)C)Cc1c(O)cc(OC)c2c1O[C@H](c1ccc(O)cc1O)CC2=O` [(−)-Kurarinone (3), (−)-kurarinone], for which the IC50 at IDO1 [1] is 23.4 ± 1.3 µM; on IDO1 [2], 74.9 ± 4.9 µM.
For `CC(C)=CCc1c(O)cc(O)c2c1OC(c1ccc(O)cc1)CC2=O` (stereo not drawn) [Sophoraflavanone B (2), sophoraflavanone B] the same measures were 19.3 ± 1.1 µM and 83.6 ± 10.8 µM.
As to `C=C(C)[C@H](CC=C(C)C)Cc1c(O)cc(OC)c2c1O[C@H](c1ccc(O)cc1OC)CC2=O` [(2S)-2′-Methoxy kurarinone (MK, 5), (2S)-2'-methoxy kurarinone], the results for the IC50 on IDO1 [1] and at IDO1 [2] were 31.4 ± 1.3 µM and 23.8 ± 1.6 µM, respectively. Also, on IDO1 [3], the Ki was determined as 13.7 ± 0.03 µM. In addition, the ΔTm at 30 µM on IDO1 [4] turned out to be 0.4 °C.
Regarding `CC(C)=CCc1c(O)cc(O)c2c(=O)c(O)c(-c3ccc(O)cc3)oc12` [Noranhydroicaritin (1), noranhydroicaritin], the IC50 at IDO1 [1] turned out to be 23.5 ± 2.2 µM; on IDO1 [2], 42.2 ± 3.5 µM.
